How the values were obtained:
[1] = system: control sera (pooled serum of ten healthy LUMC hospital workers; commercial negative donor pooled serum from the Dutch bloodbank); type: binding, human; design: Binding of Control serum LUMC to linear peptides / Binding of Control serum Blood-bank to linear peptides / Binding of Control serum LUMC to looped peptides / Binding of Control Serum Blood-Bank to Looped peptides / Binding of Control serum LUMC to linear peptides of the protein M of SARS-CoV Urbani / Binding of Control serum Blood-bank to linear peptides of the protein M of SARS-CoV Urbani / Binding of Control serum LUMC to looped peptides of the protein M of SARS-CoV Urbani / Binding of Control Serum Blood-Bank to Looped peptides of the protein M of SARS-CoV Urbani: unit not given here
[2] = system: recombinant human anti-SARS-CoV antibody 03-018; type: binding; design: Binding of antibody 03-018 to linear peptides of the N protein of SARS-CoV Urbani / Binding of antibody 03-018 to looped/cyclic peptides of the N protein of SARS-CoV Urbani: unit not given here
[3] = system: rabbit serum obtained by immunizing a rabbit with the SARS-CoV strain Frankfurt 1; type: binding; design: Binding of a rabbit serum to linear peptides / Binding of a rabbit serum to looped peptides / Rabbit serum linear peptides / Rabbit serum looped peptides / Binding of a rabbit serum to linear peptides of protein N of SARS-CoV Urbani (Rabbit serum linear peptides) / Binding of a rabbit serum to looped/cyclic peptides of protein N of SARS-CoV Urbani (Rabbit serum looped peptides): unit not given here
[4] = system: antibodies in sera from SARS patients (sera 1a, 1b, 2, 6, 37, 62, London, SARS-yellow, SARS-green); type: binding, human; design: Binding of serum 6 to linear peptides of protein X1 of SARS-CoV Urbani / Binding of serum 37 to linear peptides of protein X1 of SARS-CoV Urbani / Binding of serum 6 to looped/cyclic peptide (PEPSCAN-ELISA) / Binding of serum 37 to looped/cyclic peptide (PEPSCAN-ELISA) / Binding of serum 37 to looped/cyclic peptides of protein X1 of SARS-CoV Urbani / Binding of serum 6 to linear peptides of protein X2 / Binding of serum 37 to linear peptides of protein X2 / Binding of serum 37 to looped/cyclic peptides of protein X2 of SARS-CoV Urbani / Binding of serum 6 to linear peptides of protein M of SARS-CoV Urbani / Binding of serum 37 to linear peptides of protein M of SARS-CoV Urbani / Binding of serum 6 to looped/cyclic peptides of protein M of SARS-CoV Urbani / Binding of serum 37 to looped/cyclic peptides of protein M of SARS-CoV Urbani / Binding of serum 6 to linear peptides of protein X3 of SARS-CoV Urbani / Binding of serum 37 to linear peptides of protein X3 of SARS-CoV Urbani / Binding of serum 37 to looped/cyclic peptides of protein X3 of SARS-CoV Urbani / Binding of serum 6 to linear peptides of protein X4 of SARS-CoV Urbani / Binding of serum 37 to linear peptides of protein X4 of SARS-CoV Urbani / Binding of serum 37 to looped/cyclic peptides of protein X4 of SARS-CoV Urbani / Binding of serum 6 to linear peptides of protein X5 of SARS-CoV Urbani / Binding of serum 37 to linear peptides of protein X5 of SARS-CoV Urbani / Binding of serum 37 to looped/cyclic peptides of protein X5 of SARS-CoV Urbani / Binding of serum 6 to linear peptides of protein N of SARS-CoV Urbani / Binding of serum 37 to linear peptides of protein N of SARS-CoV Urbani / Binding of serum 6 to linear peptide (PEPSCAN-ELISA) / Binding of serum 1a to looped/cyclic peptides of protein N of SARS-CoV Urbani / Binding of serum 1b to looped/cyclic peptides of protein N of SARS-CoV Urbani / Binding of serum 2 to looped/cyclic peptides of protein N of SARS-CoV Urbani / Binding of serum 6 to looped/cyclic peptides of protein N of SARS-CoV Urbani / Binding of serum 37 to looped/cyclic peptides of protein N of SARS-CoV Urbani / Binding of serum 62 to looped/cyclic peptides of protein N of SARS-CoV Urbani / Binding of serum London to looped/cyclic peptides of protein N of SARS-CoV Urbani / Binding of serum SARS-green to looped/cyclic peptides of protein N of SARS-CoV Urbani: unit not given here

Sequence | Binding of antibody 03-018 to linear peptides of the N protein of SARS-CoV Urbani [2] | Binding of antibody 03-018 to looped/cyclic peptides of the N protein of SARS-CoV Urbani [2] | Binding of a rabbit serum to linear peptides of protein N of SARS-CoV Urbani (Rabbit serum linear peptides) [3] | Binding of a rabbit serum to looped/cyclic peptides of protein N of SARS-CoV Urbani (Rabbit serum looped peptides) [3] | Binding of serum 1a to looped/cyclic peptides of protein N of SARS-CoV Urbani [4] | Binding of serum 1b to looped/cyclic peptides of protein N of SARS-CoV Urbani [4] | Binding of serum 2 to looped/cyclic peptides of protein N of SARS-CoV Urbani [4] | Binding of serum 6 to looped/cyclic peptides of protein N of SARS-CoV Urbani [4] | Binding of serum 37 to looped/cyclic peptides of protein N of SARS-CoV Urbani [4] | Binding of serum 62 to looped/cyclic peptides of protein N of SARS-CoV Urbani [4] | Binding of serum London to looped/cyclic peptides of protein N of SARS-CoV Urbani [4] | Binding of serum SARS-green to looped/cyclic peptides of protein N of SARS-CoV Urbani [4] | Binding of serum SARS-yellow to looped/cyclic peptides of protein N of SARS-CoV Urbani [4] | Binding of Control Serum Blood-Bank to Looped peptides [1] | Binding of Control serum Blood-bank to linear peptides [1] | Binding of Control serum LUMC to linear peptides [1] | Binding of Control serum LUMC to looped peptides [1] | Binding of serum 1a to linear peptide (PEPSCAN-ELISA) [4] | Binding of serum 1b to linear peptide (PEPSCAN-ELISA) [4] | Binding of serum 2 to linear peptide (PEPSCAN-ELISA) [4] | other results
SRQLQNSMSGASADS | 0.1 | 0.2 | 0.5 | 0.6 | 0.2 | 0.1 | 0.3 | 0.1 | 0.4 | 0.3 | 0.2 | 0.3 | 0.2 |  |  |  |  |  |  |  | Control Serum Blood-Bank Looped peptides [1]: 0.5; Control serum Blood-bank linear peptides [1]: 0.8; Control serum LUMC linear peptides [1]: 0.7; Control serum LUMC looped peptides [1]: 0.3; Binding of serum 1a to linear peptides of protein N of SARS-CoV Urbani [4]: 0.2; Binding of serum 1b to linear peptides of protein N of SARS-CoV Urbani [4]: 0.1; Binding of serum 2 to linear peptides of protein N of SARS-CoV Urbani [4]: 0.2; Binding of serum 6 to linear peptides of protein N of SARS-CoV Urbani [4]: 0.2; Binding of serum 37 to linear peptides of protein N of SARS-CoV Urbani [4]: 0.8; Binding of serum 62 to linear peptides of protein N of SARS-CoV Urbani [4]: 0.6; Binding of serum London to linear peptides of protein N of SARS-CoV Urbani [4]: 0.6; Binding of serum SARS-green to linear peptides of protein N of SARS-CoV Urbani [4]: 0.5; Binding of serum SARS-yellow to linear peptides of protein N of SARS-CoV Urbani [4]: 0.5
SRSSSRSRGNSRNST | 0.1 | 0.2 | 0.1 | 0.3 | 0.3 | 0.2 | 0.3 | 0.3 | 0.5 | 0.4 | 0.4 | 0.2 | 0.4 | 0.6 | 0.7 | 0.7 | 0.6 | 0.2 | 0.1 | 0.2 | Binding of serum 6 to linear peptide (PEPSCAN-ELISA) [4]: 0.2; Binding of serum 37 to linear peptide (PEPSCAN-ELISA) [4]: 0.4; Binding of serum 62 to linear peptide (PEPSCAN-ELISA) [4]: 0.6; Binding of serum London to linear peptide (PEPSCAN-ELISA) [4]: 0.4; Binding of serum SARS-green to linear peptide (PEPSCAN-ELISA) [4]: 0.2; Binding of serum SARS-yellow to linear peptide (PEPSCAN-ELISA) [4]: 0.7
SSRGNSPARMASGGG | 0.1 | 0.2 | 0.2 | 0.0 | 0.4 | 0.2 | 0.5 | 0.4 | 0.4 | 0.5 | 0.8 | 0.6 | 0.5 | 0.8 | 0.8 | 0.9 | 0.9 | 0.4 | 0.3 | 0.2 | Binding of serum 6 to linear peptide (PEPSCAN-ELISA) [4]: 0.2; Binding of serum 37 to linear peptide (PEPSCAN-ELISA) [4]: 0.5; Binding of serum 62 to linear peptide (PEPSCAN-ELISA) [4]: 0.6; Binding of serum London to linear peptide (PEPSCAN-ELISA) [4]: 0.5; Binding of serum SARS-green to linear peptide (PEPSCAN-ELISA) [4]: 1.0; Binding of serum SARS-yellow to linear peptide (PEPSCAN-ELISA) [4]: 0.7
SSRSRGNSRNSTPGS | 0.1 | 0.2 | 0.1 | 0.0 | 0.3 | 0.1 | 0.3 | 0.1 | 0.4 | 0.3 | 0.3 | 0.0 | 0.1 | 0.5 | 0.6 | 0.5 | 0.5 | 0.8 | 0.5 | 0.1 | Binding of serum 6 to linear peptide (PEPSCAN-ELISA) [4]: 0.2; Binding of serum 37 to linear peptide (PEPSCAN-ELISA) [4]: 0.6; Binding of serum 62 to linear peptide (PEPSCAN-ELISA) [4]: 0.5; Binding of serum London to linear peptide (PEPSCAN-ELISA) [4]: 0.4; Binding of serum SARS-green to linear peptide (PEPSCAN-ELISA) [4]: 0.1; Binding of serum SARS-yellow to linear peptide (PEPSCAN-ELISA) [4]: 0.5

From patent US20070128217A1 (priority 2003, published 2007)
